How the values were obtained:
[1] = biological target: T1, PCSK9 (Homo sapiens, UniProt Q8NBP7); assay: PCSK9 Alexa FRET Ultra TR-FRET assay (displacement of AlexaFluor647 tagged cyclic peptide); assay type: binding; conditions: 0.5 nM biotinylated PCSK9, 960 nM AF cyclic peptide, Ki calculated from IC50 and KD of AF peptide
T1 construct: Biotinylated PCSK9 was obtained commercially; purchased
Procedure: (§1) The following is a description of the assays used to determine activity of compounds of the invention, and any comparator compounds reported, toward PCSK9 antagonism. Biotinylated PCSK9 was obtained commercially.
A solution containing 1 nM biotinylated PCSK9+2.5 nM Lance Streptavidin Europium (Strep-Eu) is made in 50 mM HEPES pH 7.4, 0.15 M NaCl, 5 mM CaCl2, 0.01% BSA, and 0.01% Surfactant P20. A separate solution containing 1920 nM of the AlexaFluor tagged cyclic peptide is made in the same buffer system. An Echo is used to transfer 0.015 ul of compound plus 0.735 ul of DMSO to each well of an assay plate followed by the addition of 15 ul of PCSK9+Stept-Eu and 15 ul of AF peptide. The final assay volume is 30.750 ul containing 0.5 nM PCSK9, 1.25 nM Strep-Eu, and 960 nM AF cyclic peptide. The reaction is incubated at room temperature for at least two hours prior to fluorescence measurements using an Envision Multilabel Reader. IC50 values are determined by fitting data to a sigmoidal dose-response curve using nonlinear regression. Ki is then calculated from the IC50 and the KD of AF cyclic peptide. Counts (B-counts) of the europium-labeled PCSK9 are followed to observe if compounds are adversely affecting PCSK9. A fall off of the B-counts is likely indicates a false positive of inhibition. Data from this procedure is reported as “Ki Ultra=‘numerical value’ (data reported is nanomolar)”

[2] = biological target: T1, PCSK9; assay: PCSK9 Alexa FRET Plus TR-FRET assay (displacement of AlexaFluor647 tagged cyclic peptide Reagent B); assay type: binding; conditions: 0.5 nM biotinylated PCSK9, 960 nM AF cyclic peptide Reagent B, Ki calculated from IC50 and KD of AF peptide
Procedure: as §1
A solution containing 1 nM biotinylated PCSK9+2.5 nM Lance Streptavidin Europium (Strep-Eu) is made in 50 mM HEPES pH 7.4, 0.15 M NaCl, 5 mM CaCl2, 0.01% BSA, and 0.01% Surfactant P20. A separate solution containing 1920 nM of the AlexaFluor tagged cyclic peptide is made in the same buffer system. An Echo is used to transfer 0.075 ul of compound plus 0.675 ul of DMSO to each well of an assay plate followed by the addition of 15 ul of PCSK9+Stept-Eu and 15 ul of AF peptide. The final assay volume is 30.750 ul containing 0.5 nM PCSK9, 1.25 nM Strep-Eu, and 960 nM AF cyclic peptide. The reaction is incubated at room temperature for at least two hours prior to fluorescence measurements using an Envision Multilabel Reader. IC50 values are determined by fitting data to a sigmoidal dose-response curve using nonlinear regression. Ki is then calculated from the IC50 and the KD of AF cyclic peptide. Counts (B-counts) of the europium-labeled PCSK9 are followed to observe if compounds are adversely affecting PCSK9. A fall off of the B-counts is likely indicates a false positive of inhibition. Data from this procedure is reported as “P=‘numerical value’ (nanomolar)”
Activity data obtained by one or both of the above-described procedures is reported for selected example compounds of the invention in the following format: Example No.: A (standard TR Fret)=‘numerical value’; P (Alexa Fret plus standard TR Fret)=‘numerical value’/, note that all values reported are nanomolar.

T1 sequence (Q8NBP7 153-692): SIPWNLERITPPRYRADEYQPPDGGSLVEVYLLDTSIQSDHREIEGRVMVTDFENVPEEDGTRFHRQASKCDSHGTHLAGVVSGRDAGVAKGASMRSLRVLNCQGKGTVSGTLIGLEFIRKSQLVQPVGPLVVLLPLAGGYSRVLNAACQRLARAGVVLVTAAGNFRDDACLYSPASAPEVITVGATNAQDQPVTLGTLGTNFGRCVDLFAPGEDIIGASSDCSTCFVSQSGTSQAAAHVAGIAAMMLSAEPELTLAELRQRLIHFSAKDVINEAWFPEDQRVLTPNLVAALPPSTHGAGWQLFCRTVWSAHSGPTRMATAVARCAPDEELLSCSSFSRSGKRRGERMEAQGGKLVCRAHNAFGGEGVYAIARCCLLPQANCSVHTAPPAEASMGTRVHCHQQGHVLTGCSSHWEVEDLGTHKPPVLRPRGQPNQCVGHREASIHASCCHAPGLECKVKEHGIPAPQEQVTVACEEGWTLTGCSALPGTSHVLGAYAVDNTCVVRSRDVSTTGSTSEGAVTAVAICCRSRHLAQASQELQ

Structure (SMILES)	Ki ([1]; Ki Ultra) [nM]	Ki ([2]; Ki Plus) [nM]	Ki ([1]; read-out: Ki Ultra) [nM]	Ki ([2]; read-out: Ki Plus) [nM]
COc1ccc(C[C@@H]2NC(=O)[C@H]([C@@H](C)O)NC(=O)[C@@H]3[C@@H]4CCN3C(=O)[C@@H]3Cc5cn(c6ccc(F)cc56)CCCCCCN(Cc5ccc(cc5)CCNC(=O)[C@]5(C)CCCN5C2=O)C(=O)CCC(=O)N[C@@H](CCCC[N+](C)(C)C)C(=O)N[C@H](CNC(=O)CCOCCOCC[N+](C)(C)C)C(=O)N[C@@H](Cc2cccc(c2)CNC(=O)CO4)C(=O)N3)cc1 (stereo in doubt) [Ex-24]	0.00767	0.00812		
COc1ccc(C[C@@H]2NC(=O)[C@H]([C@@H](C)O)NC(=O)[C@@H]3[C@@H]4CCN3C(=O)[C@@H]3Cc5cn(c6ccc(F)cc56)CCCCCCN(Cc5ccc(cc5)CCNC(=O)[C@]5(C)CCCN5C2=O)C(=O)CCC(=O)N[C@@H](C)C(=O)N[C@H](CN)C(=O)N[C@@H](Cc2cccc(c2)CNC(=O)CO4)C(=O)N3)cc1 [Ex-01]	0.0046	< 0.00558		
COc1ccc(C[C@@H]2NC(=O)[C@H]([C@@H](C)O)NC(=O)[C@@H]3[C@@H]4CCN3C(=O)[C@@H]3Cc5cn(c6ccc(F)cc56)C/C=C\CCCN(Cc5ccc(cc5)CCNC(=O)[C@]5(C)CCCN5C2=O)C(=O)CCC(=O)N[C@@H](CNC(=O)CCOCCOCC[N+](C)(C)C)C(=O)N[C@H](C)C(=O)N[C@@H](Cc2cccc(c2)CNC(=O)CO4)C(=O)N3)cc1 [Ex-04]			0.00471	≤ 0.00558
COc1ccc(C[C@@H]2NC(=O)[C@H]([C@@H](C)O)NC(=O)[C@@H]3[C@@H]4CCN3C(=O)[C@@H]3Cc5cn(c6ccc(F)cc56)C/C=C/CCCN(Cc5ccc(cc5)CCNC(=O)[C@]5(C)CCCN5C2=O)C(=O)CCC(=O)N[C@@H](CNC(=O)CCOCCOCC[N+](C)(C)C)C(=O)N[C@H](C)C(=O)N[C@@H](Cc2cccc(c2)CNC(=O)CO4)C(=O)N3)cc1 [Ex-05]			0.033	0.00962
COc1ccc(C[C@@H]2NC(=O)[C@H]([C@@H](C)O)NC(=O)[C@@H]3[C@@H]4CCN3C(=O)[C@@H]3Cc5cn(c6ccc(F)cc56)C/C=C/CCCN(Cc5ccc(cc5)CCNC(=O)[C@]5(C)CCCN5C2=O)C(=O)CCC(=O)N[C@@H](C)C(=O)N[C@H](CNC(=O)CCCCC[N+](C)(C)C)C(=O)N[C@@H](Cc2cccc(c2)CNC(=O)CO4)C(=O)N3)cc1 [Ex-06]			0.00342	0.00568
COc1ccc(C[C@@H]2NC(=O)[C@H]([C@@H](C)O)NC(=O)[C@@H]3[C@@H]4CCN3C(=O)[C@@H]3Cc5cn(c6ccc(F)cc56)C/C=C/CCCN(Cc5ccc(cc5)CCNC(=O)[C@]5(C)CCCN5C2=O)C(=O)CCC(=O)N[C@H]2CN(C(=O)CCOCCOCC[N+](C)(C)C)CCCCC(=O)NC[C@@H](NC2=O)C(=O)N[C@@H](Cc2cccc(c2)CNC(=O)CO4)C(=O)N3)cc1 [Ex-07]			0.0675	0.0591
COc1ccc(C[C@@H]2NC(=O)[C@H]([C@@H](C)O)NC(=O)[C@@H]3[C@@H]4CCN3C(=O)[C@@H]3Cc5cn(c6ccc(F)cc56)Cc5cn(nn5)Cc5cc(ccc5CNC(=O)CCC(=O)N[C@@H](C)C(=O)N[C@H](CNC(=O)CCOCCOCC[N+](C)(C)C)C(=O)N[C@@H](Cc5cccc(c5)CNC(=O)CO4)C(=O)N3)CCNC(=O)[C@]3(C)CCCN3C2=O)cc1 [Ex-08]			0.0683	0.0157
COc1ccc(C[C@@H]2NC(=O)[C@H]([C@@H](C)O)NC(=O)[C@@H]3[C@@H]4CCN3C(=O)[C@@H]3Cc5cn(c6ccc(F)cc56)Cc5cn(nn5)Cc5cc(ccc5CNC(=O)CCC(=O)N[C@@H](C)C(=O)N[C@H](CNC(=O)CCOCCOCC[N+](C)(C)C)C(=O)N[C@@H](Cc5cccc(c5)CNC(=O)CO4)C(=O)N3)CCNC(=O)[C@]3(C)CCCN3C2=O)cc1 [Ex-09]	0.247	0.0919		
COc1ccc(C[C@@H]2NC(=O)[C@H]([C@@H](C)O)NC(=O)[C@@H]3[C@@H]4CCN3C(=O)[C@@H]3Cc5cn(c6ccc(F)cc56)Cc5cn(nn5)C[C@@H](NC(=O)CCC(=O)N[C@@H](C)C(=O)N[C@H](CNC(=O)CCOCCOCC[N+](C)(C)C)C(=O)N[C@@H](Cc5cccc(c5)CNC(=O)CO4)C(=O)N3)c3ccc(cc3)CCNC(=O)[C@]3(C)CCCN3C2=O)cc1 [Ex-10]			0.0249	0.00574
COc1ccc(C[C@@H]2NC(=O)[C@H]([C@@H](C)O)NC(=O)[C@@H]3[C@@H]4CCN3C(=O)[C@@H]3Cc5cn(c6ccc(F)cc56)Cc5cn(nn5)C[C@@H](NC(=O)CCC(=O)N[C@@H](CNC(=O)CCOCCOCC[N+](C)(C)C)C(=O)N[C@H](C)C(=O)N[C@@H](Cc5cccc(c5)CNC(=O)CO4)C(=O)N3)c3ccc(cc3)CCNC(=O)[C@]3(C)CCCN3C2=O)cc1 [Ex-11]			0.207	0.0433
COc1ccc(C[C@@H]2NC(=O)[C@H]([C@@H](C)O)NC(=O)[C@@H]3[C@@H]4CCN3C(=O)[C@@H]3Cc5cn(c6ccc(F)cc56)Cc5cn(nn5)CC(NC(=O)CCCCCC(=O)N[C@H](CNC(=O)CCOCCOCC[N+](C)(C)C)C(=O)N[C@@H](Cc5cccc(c5)CNC(=O)CO4)C(=O)N3)c3ccc(cc3)CCNC(=O)[C@]3(C)CCCN3C2=O)cc1 [Ex-12]			0.0225	0.0145
COc1ccc(C[C@@H]2NC(=O)[C@H]([C@@H](C)O)NC(=O)[C@@H]3[C@@H]4CCN3C(=O)[C@@H]3Cc5cn(c6ccc(F)cc56)Cc5cn(nn5)CCN(Cc5ccc(cc5)CCNC(=O)[C@]5(C)CCCN5C2=O)C(=O)CCC(=O)N[C@@H](CNC(=O)CCOCCOCC[N+](C)(C)C)C(=O)N[C@H](C)C(=O)N[C@@H](Cc2cccc(c2)CNC(=O)CO4)C(=O)N3)cc1 [Ex-13]			0.477	0.145
COc1ccc(C[C@@H]2NC(=O)[C@H]([C@@H](C)O)NC(=O)[C@@H]3[C@@H]4CCN3C(=O)[C@@H]3Cc5cn(c6ccc(F)cc56)Cc5cn(nn5)CCN(Cc5ccc(cc5)CCNC(=O)[C@]5(C)CCCN5C2=O)C(=O)CCC(=O)N[C@@H](C)C(=O)N[C@H](CNC(=O)CCOCCOCC[N+](C)(C)C)C(=O)N[C@@H](Cc2cccc(c2)CNC(=O)CO4)C(=O)N3)cc1 [Ex-14]			0.021	0.016
COc1ccc(C[C@@H]2NC(=O)[C@H]([C@@H](C)O)NC(=O)[C@@H]3[C@@H]4CCN3C(=O)[C@@H]3Cc5cn(c6ccc(F)cc56)Cc5cn(nn5)CCN(Cc5ccc(cc5)CCNC(=O)[C@]5(C)CCCN5C2=O)C(=O)CCCC(=O)N[C@@H](CNC(=O)CCOCCOCC[N+](C)(C)C)C(=O)N[C@H](C)C(=O)N[C@@H](Cc2cccc(c2)CNC(=O)CO4)C(=O)N3)cc1 [Ex-15]			0.26	0.103
COc1ccc(C[C@@H]2NC(=O)[C@H]([C@@H](C)O)NC(=O)[C@@H]3[C@@H]4CCN3C(=O)[C@@H]3Cc5cn(c6ccc(F)cc56)Cc5cn(nn5)CCN(Cc5ccc(cc5)CCNC(=O)[C@]5(C)CCCN5C2=O)C(=O)CCCCCC(=O)N[C@H](CNC(=O)CCOCCOCC[N+](C)(C)C)C(=O)N[C@@H](Cc2cccc(c2)CNC(=O)CO4)C(=O)N3)cc1 [Ex-16]			0.0514	0.0142
COc1ccc(C[C@@H]2NC(=O)[C@H]([C@@H](C)O)NC(=O)[C@@H]3[C@@H]4CCN3C(=O)[C@@H]3Cc5cn(c6ccc(F)cc56)CCCCN(Cc5ccc(cc5)CCNC(=O)[C@]5(C)CCCN5C2=O)C(=O)CCC(=O)N[C@@H](C)C(=O)N[C@H](CNC(=O)CCOCCOCC[N+](C)(C)C)C(=O)N[C@@H](Cc2cccc(c2)CNC(=O)CO4)C(=O)N3)cc1 [Ex-28]				≤ 0.00558
COc1ccc(C[C@@H]2NC(=O)[C@H]([C@@H](C)O)NC(=O)[C@@H]3[C@@H]4CCN3C(=O)[C@@H]3Cc5cn(c6ccc(F)cc56)CCCCCCN(Cc5ccc(cc5)CCNC(=O)[C@]5(C)CCCN5C2=O)C(=O)CCC(=O)N[C@@H](C)C(=O)N[C@H](CNC(=O)CCOCC[N+](C)(C)C)C(=O)N[C@@H](Cc2cccc(c2)CNC(=O)CO4)C(=O)N3)cc1 [Ex-31]		< 0.00558		

— patent US12209145B2, “PCSK9 antagonist compounds” (Merck Sharp & Dohme LLC, priority 2018, dated 2025)
